{"source": "patent US20040229791A1", "about": "“Compositions and methods of modulating TGF-beta activity by fatty acids” (priority 2002, published 2004)", "key": {"[1]": {"target": "T1, native α2M (Homo sapiens, UniProt P01023)", "T1 construct": "was purified from pooled citrate-treate human plasma; from tissue; host or cells: pooled citrate-treated human plasma", "T1 sequence (P01023 24-1474)": "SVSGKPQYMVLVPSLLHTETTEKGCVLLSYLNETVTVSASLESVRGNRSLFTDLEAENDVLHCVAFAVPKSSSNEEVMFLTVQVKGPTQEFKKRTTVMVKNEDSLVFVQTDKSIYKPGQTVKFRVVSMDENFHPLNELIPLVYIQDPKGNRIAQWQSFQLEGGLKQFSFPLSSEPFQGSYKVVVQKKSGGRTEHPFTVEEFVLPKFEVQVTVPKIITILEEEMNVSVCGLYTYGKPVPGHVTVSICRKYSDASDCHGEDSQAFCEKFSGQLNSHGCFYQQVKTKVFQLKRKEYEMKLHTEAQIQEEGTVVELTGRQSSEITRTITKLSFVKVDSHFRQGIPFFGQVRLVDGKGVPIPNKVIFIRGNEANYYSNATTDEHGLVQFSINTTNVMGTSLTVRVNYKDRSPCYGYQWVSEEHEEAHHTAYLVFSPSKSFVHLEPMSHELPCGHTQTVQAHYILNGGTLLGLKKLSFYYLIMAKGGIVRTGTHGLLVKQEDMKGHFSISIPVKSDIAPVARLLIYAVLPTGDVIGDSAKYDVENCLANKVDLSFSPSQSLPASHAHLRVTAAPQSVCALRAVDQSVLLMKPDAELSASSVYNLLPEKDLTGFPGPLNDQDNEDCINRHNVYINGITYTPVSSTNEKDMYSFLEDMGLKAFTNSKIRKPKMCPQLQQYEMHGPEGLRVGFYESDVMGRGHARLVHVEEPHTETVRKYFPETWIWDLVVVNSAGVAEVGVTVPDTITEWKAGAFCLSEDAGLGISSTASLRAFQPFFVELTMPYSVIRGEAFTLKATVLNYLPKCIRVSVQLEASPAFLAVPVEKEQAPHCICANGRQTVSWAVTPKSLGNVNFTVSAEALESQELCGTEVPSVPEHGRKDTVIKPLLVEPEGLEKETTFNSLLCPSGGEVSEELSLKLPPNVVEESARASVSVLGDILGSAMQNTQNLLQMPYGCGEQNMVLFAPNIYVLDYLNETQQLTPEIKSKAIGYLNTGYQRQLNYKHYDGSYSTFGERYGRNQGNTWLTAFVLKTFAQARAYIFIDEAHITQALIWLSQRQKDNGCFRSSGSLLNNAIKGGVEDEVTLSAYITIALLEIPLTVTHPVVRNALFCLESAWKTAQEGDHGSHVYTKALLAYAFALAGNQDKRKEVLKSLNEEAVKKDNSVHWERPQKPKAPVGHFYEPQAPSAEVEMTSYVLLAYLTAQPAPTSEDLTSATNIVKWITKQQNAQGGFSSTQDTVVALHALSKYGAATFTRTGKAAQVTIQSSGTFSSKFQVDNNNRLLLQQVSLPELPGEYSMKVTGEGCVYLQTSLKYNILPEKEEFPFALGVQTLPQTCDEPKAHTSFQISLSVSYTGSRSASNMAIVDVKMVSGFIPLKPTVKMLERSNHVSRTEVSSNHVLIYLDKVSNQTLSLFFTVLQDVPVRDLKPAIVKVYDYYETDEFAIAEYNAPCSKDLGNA", "assay": "Gel filtration of 3H-arachidonic acid with native α2M", "type": "binding", "settings": "100 μM 3H-arachidonic acid", "description": "The interaction of ^3H-arachidonic acid and α2M* was determined using gel filtration. ^3H-arachidonic acid was incubated with native ? 2M or ? 2M*, which was activated by methylamine. After incubation at room temperature for 30 min, the reaction mixture was subjected to gel filtration chromatography on Sephacryl® S-300 HR. The ^3H-arachidonic acid radioactivity and concentrations of. α2M* or native ? 2M in the eluents were determined by scintillation counting and 5% SDS-PAGE followed by Coomassie blue staining, respectively. […] The small peak, which appeared in the flow-through fractions, contained the ^3H-arachidonic acid- ? 2M* complex and free ? 2M*, which was identified by Coomassie blue staining (FIG. 5, inset). The subsequent large peak, which appeared in the column bed volume fractions, was identified as free ^3H-arachidonic acid.\nGel Filtration of ^3H-arachidonic acid-α2M* Complexes—The reaction mixture contained 100 μM ^3H-arachidonic acid with or without 10 μg of ? 2M*, which was activated by methylamine and plasmin as described previously (12,22), or native ? […] The column was then eluted with the same phosphate buffer and the fractional volume was ˜1 ml, 20 μl of which was counted with a scintillation counter and an another 20 μl of which was analyzed by SDS-PAGE followed by Coomassie blue staining (to locate fractions containing. α2M* or native ? 2M)."}, "[2]": {"target": "T2, 125I-TGF-β1-α2M* complex (Homo sapiens, UniProt P01023)", "T2 construct": "was purified from pooled citrate-treate human plasma; from tissue; host or cells: pooled citrate-treated human plasma", "T2 sequence (P01023 24-1474)": "T1 sequence (P01023 24-1474)", "assay": "Dissociation of preformed 125I-TGF-β1-α2M* complex", "type": "binding", "settings": "added after 30 min preincubation of complex", "description": "To determine whether fatty acids are capable of dissociating TGF- ? - ? 2M* complexes, various concentrations of arachidonic acid were added to a reaction mixture containing ^125I-TGF- ? 1 or ^125I-TGF ? β3 and α2M* which had been preincubated at room temperature for 30 mi 30 minutes at room temperature, the ^125I-TGF ? β isoform-α2M* complexes in the reaction mixtures were analyzed by 5% non-denaturing PAGE. […] However, lower concentrations of arachidonic acid were effective in inhibiting complex formation of ^125I-TGF- ? 1 and α2M* than were required to dissociate the ^125I-TGF- ? 1- ? 2M* complex."}}, "data": [{"smiles": "CCCCC/C=C\\C/C=C\\C/C=C\\C/C=C\\CCCC(=O)O", "note": "[arachidonic acid]", "values": [{"measurement": "complex formation with native α2M", "setting": "[1]", "value": "no complex formation"}, {"measurement": "dissociation of the 125I-TGF-β1-α2M* complex", "setting": "[2]", "value": "able to dissociate"}]}]}
